Test results: US7612113B2, “Hydroxy tetrahydro-naphthalenylurea derivatives” (Xention Limited, priority 2002, dated 2009)

Target: T1, human VR1 (Homo sapiens, UniProt Q8NER1)
T1 construct: expressed in transfected cells
Assay: capsaicin-induced Ca2+ influx in the human VR1-transfected CHO cell line (Assay 1)
Type: cell-based
Conditions: 10 nM capsaicin, human VR1-CHOluc9aeq cells; read-out: In vitro activity class
Text: [Measurement of capsaicin-induced Ca^2+ influx in the human VR1-transfected CHO cell line] (Assay 1)
• (1) Establishment of the Human VR1-CHOluc9aeq Cell Line • Human vanilloid receptor (hVR1) cDNA was cloned from libraries of axotomized dorsal root ganglia (WO 00/29577). The cloned hVR1 cDNA was constructed with pcDNA3 vector and transfected into a CHOluc9aeq cell line. The cell line contains aequorin and CRE-luciferase reporter genes as read-out signals. The transfectants were cloned by limiting dilution in selection medium (DMEM/F12 medium (Gibco BRL) supplemented with 10% FCS, 1.4 mM Sodium pyruvate, 20 mM HEPES, 0.15% Sodium bicarbonate, 100 U/ml penicillin, 100 μg/ml streptomycin, 2 mM glutamine, non-essential amino acids and 2 mg/ml G418). Ca^2+ influx was examined in the capsaicin-stimulated clones. A high responder clone was selected and used for further experiments in the project. The human VR1-CHOluc9aeq cells were maintained in the selection medium and passaged every 3-4 days at 1-2.5×10^5 cells/flask ([…]). • (2) Measurement of Ca^2+ Influx Using FDSS-3000 • Human VR1-CHOluc9aeq cells were suspended in a culture medium which is the same as the selection medium except for G418 and seeded at a density of 1,000 cells per well into 384-well plates (black walled clear-base/Nalge Nunc International). Following the culture for 48 hrs the medium was changed to 2 μM Fluo-3 AM (Molecular Probes) and 0.02% Puronic F-127 in assay buffer (Hank's balanced salt solution (HBSS), 17 mM HEPES (pH7.4), 1 mM Probenecid, 0.1% BSA) and the cells were incubated for 60 min at. 25° C. After washing twice with assay buffer the cells were incubated with a test compound or vehicle for 20 min at 25° C. Mobilization of cytoplasmic Ca^2+ was measured by FDSS-3000 (λex=488 nm, λem=540 nm/Hamamatsu Photonics) for 60 sec after the stimulation with 10 nM capsaicin. Integral R was calculated and compared with controls. [Measurement of the Capsaicin-Induced Ca^2+ Influx in Primary Cultured Rat Dorsal Root Ganglia Neurons] (Assay 2) • (1) Preparation of Rat Dorsal Root Ganglia Neurons • New born Wister rats (5-11 days) were sacrificed and dorsal root ganglia (DRG) was removed. DRG was incubated with 0.1% trypsin (Gibco BRL) in PBS(−) (Gibco BRL) for 30 min at 37° C., then a half volume of fetal calf serum (FCS) was added and the cells were spun down. The DRG neuron cells were resuspended in Ham F12/5% FCS/5% horse serum (Gibco BRL) and dispersed by repeated pipetting and passing through 70 μm mesh Falcon). The culture plate was incubated for 3 hours at 37° C. to remove contaminating Schwann cells. Non-adherent cells were recovered and further cultured in laminin-coated 384 well plates (Nunc) at 1×10^4 cells/50 μl/well for 2 days in the presence of 50 ng/ml recombinant rat NGF (Sigma) and 50 μM 5-fluorodeoxyuridine (Sigma). • (2) Ca^2+ Mobilization Assay • DRG neuron cells were washed twice with HBSS supplemented with 17 mM HEPES (pH 7.4) and 0.1% BSA. After incubating with 2 μM fluo-3AM (Molecular Probe), 0.02% PF127 (Gibco BRL) and 1 mM probenecid (Sigma) for 40 min at 37° C., cells were washed 3 times. The cells were incubated with VR1 antagonists or vehicle (dimethylsulphoxide) and then with 1 μM capsaicin in FDSS-6000 (λex=480 nm, λem=520 nm/Hamamatsu Photonics). The fluorescence changes at 480 nm were monitored for 2.5 min. Integral R was calculated and compared with controls. [Organ Bath Assay to Measure the Capsaicin-Induced Bladder Contraction] (Assay 3)
The data corresponds to the compounds as yielded by solid phase synthesis and thus to levels of purity of about 40 to 90%. For practical reasons, the compounds are grouped in four classes of activity as follows: IC50=A(<or=)0.1 μM<B(<or=)0.5 μM<C(<or=)1 μM<D

T1 sequence (Q8NER1 whole entry): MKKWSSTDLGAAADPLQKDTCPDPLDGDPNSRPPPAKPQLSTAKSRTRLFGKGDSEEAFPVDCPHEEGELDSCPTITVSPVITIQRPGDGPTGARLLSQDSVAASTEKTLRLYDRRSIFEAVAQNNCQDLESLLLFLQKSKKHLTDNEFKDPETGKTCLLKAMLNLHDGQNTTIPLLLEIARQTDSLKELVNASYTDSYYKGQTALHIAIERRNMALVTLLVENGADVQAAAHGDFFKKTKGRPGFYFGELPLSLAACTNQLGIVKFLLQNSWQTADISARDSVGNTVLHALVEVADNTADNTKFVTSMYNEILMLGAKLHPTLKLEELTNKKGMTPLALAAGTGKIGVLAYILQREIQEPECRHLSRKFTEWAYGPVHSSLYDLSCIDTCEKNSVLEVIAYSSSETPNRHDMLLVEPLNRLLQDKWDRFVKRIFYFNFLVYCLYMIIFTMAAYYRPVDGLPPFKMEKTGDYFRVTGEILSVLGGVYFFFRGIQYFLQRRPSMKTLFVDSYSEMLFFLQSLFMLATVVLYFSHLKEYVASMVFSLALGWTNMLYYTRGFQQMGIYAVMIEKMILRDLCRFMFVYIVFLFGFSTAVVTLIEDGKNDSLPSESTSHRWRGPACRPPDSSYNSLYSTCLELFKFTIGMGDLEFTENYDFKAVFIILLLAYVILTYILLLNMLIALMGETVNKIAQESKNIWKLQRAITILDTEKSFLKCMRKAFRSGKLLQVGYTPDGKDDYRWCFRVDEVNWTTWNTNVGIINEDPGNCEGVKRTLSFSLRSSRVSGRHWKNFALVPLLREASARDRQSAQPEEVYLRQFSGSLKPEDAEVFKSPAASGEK

Row | IC50 [nM] | SMILES
1 | < 100 | O=C(NCc1ccc(C(F)(F)F)cc1)Nc1cccc2c1C[C@@H](O)CC2 [Example 4-5, N-{(S)-7-hydroxy-5,6,7,8-tetrahydro-naphthalen-1-yl}-N′-(4-trifluoromethyl-benzyl)-urea]
2 | < 100 | O=C(NCc1ccc(OC(F)(F)F)cc1)Nc1cccc2c1C[C@@H](O)CC2 [Example 4-3, N-{(S)-7-hydroxy-5,6,7,8-tetrahydro-naphthalen-1-yl}-N′-(4-trifluoromethoxy-benzyl)-urea]
3 | 500 to 1000 | O=C(Nc1ccccc1)Nc1cccc2c1CC(O)CC2 (stereo not drawn) [Example 2-1, N-phenyl-N′-(7-hydroxy-5,6,7,8-tetrahydro-1-naphthalenyl) urea]
4 | < 100 | O=C(NCc1ccc(OC(F)(F)F)cc1)Nc1cccc2c1C[C@H](O)CC2 [Example 4-2, N-{(R)-7-hydroxy-5,6,7,8-tetrahydro-naphthalen-1-yl}-N′-(4-trifluoromethoxy-benzyl)-urea]

Same assay, conditions: Table 1; 10 nM capsaicin, human VR1-CHOluc9aeq cells; read-out: activity class

Row | IC50 [nM] | SMILES
5 | < 100 | COc1cc(NC(=O)Nc2cccc3c2CC(O)CC3)cc(OC)c1 (stereo not drawn) [Example 2-37]
6 | < 100 | Cc1cc(NC(=O)Nc2cccc3c2CC(O)CC3)ccc1Cl (stereo not drawn) [Example 2-36]

Same assay, conditions: Table 2; 10 nM capsaicin, human VR1-CHOluc9aeq cells; read-out: activity class

Row | SMILES | IC50 [nM]
7 | O=C(NCc1ccccc1)Nc1cccc2c1CC(O)CC2 (stereo not drawn) [Example 4-6] | 100 to 500
8 | O=C(NCc1ccccc1Br)Nc1cccc2c1CC(O)CC2 (stereo not drawn) [Example 4-21] | < 100
9 | O=C(NCc1ccc(Cl)cc1)Nc1cccc2c1CC(O)CC2 (stereo not drawn) [Example 4-9] | < 100
10 | CC(C)(C)c1ccc(CNC(=O)Nc2cccc3c2CC(O)CC3)cc1 (stereo not drawn) [Example 4-16] | < 100
11 | O=C(NCc1cccc(Br)c1)Nc1cccc2c1CC(O)CC2 (stereo not drawn) [Example 4-24] | < 100
12 | O=C(NCc1ccc(Cl)c(Cl)c1)Nc1cccc2c1CC(O)CC2 (stereo not drawn) [Example 4-18] | < 100
13 | O=C(NCc1c(F)cccc1F)Nc1cccc2c1CC(O)CC2 (stereo not drawn) [Example 4-28] | 500 to 1000
14 | O=C(NCc1ccc([N+](=O)[O-])cc1)Nc1cccc2c1CC(O)CC2 (stereo not drawn) [Example 4-25] | < 100
15 | O=C(NCc1ccccc1C(F)(F)F)Nc1cccc2c1CC(O)CC2 (stereo not drawn) [Example 4-19] | < 100
16 | COc1cccc(CNC(=O)Nc2cccc3c2CC(O)CC3)c1 (stereo not drawn) [Example 4-13] | 100 to 500
17 | O=C(NCc1ccc(C(F)(F)F)cc1)Nc1cccc2c1CC(O)CC2 (stereo not drawn) [Example 4-8] | < 100
18 | COc1ccc(CNC(=O)Nc2cccc3c2CC(O)CC3)cc1OC (stereo not drawn) [Example 4-27] | 500 to 1000
19 | O=C(NCc1cccc(Cl)c1)Nc1cccc2c1CC(O)CC2 (stereo not drawn) [Example 4-14] | < 100
20 | O=C(NCc1ccc(F)c(F)c1)Nc1cccc2c1CC(O)CC2 (stereo not drawn) [Example 4-12] | < 100
21 | CCOC(=O)Cc1ccc(NC(=O)Nc2cccc3c2CC(O)CC3)cc1 (stereo not drawn) [Example 4-33] | 100 to 500
22 | COc1cc(OC)c(CNC(=O)Nc2cccc3c2CC(O)CC3)c(OC)c1 (stereo not drawn) [Example 4-23] | 500 to 1000
23 | O=C(NCc1cccc(C(F)(F)F)c1)Nc1cccc2c1CC(O)CC2 (stereo not drawn) [Example 4-10] | < 100
24 | COC(=O)c1ccc(CNC(=O)Nc2cccc3c2CC(O)CC3)cc1 (stereo not drawn) [Example 4-22] | < 100
25 | O=C(NCc1cc(C(F)(F)F)cc(C(F)(F)F)c1)Nc1cccc2c1CC(O)CC2 (stereo not drawn) [Example 4-26] | < 100
26 | O=C(NCc1ccc(OC(F)(F)F)cc1)Nc1cccc2c1CC(O)CC2 (stereo not drawn) [Example 4-17] | < 100
27 | O=C(NCc1ccc(Br)cc1)Nc1cccc2c1CC(O)CC2 (stereo not drawn) [Example 4-7] | < 100
28 | O=C(NCc1ccc(Cl)cc1Cl)Nc1cccc2c1CC(O)CC2 (stereo not drawn) [Example 4-15] | < 100

More lines, now with the values ahead:

Row | IC50 [nM] | SMILES
29 | < 100 | O=C(NCc1ccc(C(F)(F)F)c(NC2CCCC2)c1)Nc1cccc2c1CC(O)CC2 (stereo not drawn) [Example 4-52]
30 | < 100 | O=C(Nc1ccc(OC(F)(F)F)cc1)Nc1cccc2c1CC(O)CC2 (stereo not drawn) [Example 4-40]
31 | 500 to 1000 | NS(=O)(=O)c1ccc(CNC(=O)Nc2cccc3c2CC(O)CC3)cc1 (stereo not drawn) [Example 4-50]
32 | < 100 | O=C(NCc1ccc(SC(F)(F)F)cc1)Nc1cccc2c1CC(O)CC2 (stereo not drawn) [Example 4-45]
33 | < 100 | O=C(NCCc1ccc(Cl)cc1)Nc1cccc2c1CC(O)CC2 (stereo not drawn) [Example 4-36]
34 | < 100 | Cc1ccc(Oc2ccc(NC(=O)Nc3cccc4c3CC(O)CC4)cc2)cc1 (stereo not drawn) [Example 4-38]
35 | 100 to 500 | CC(NC(=O)Nc1cccc2c1CC(O)CC2)c1ccc(F)cc1 (stereo not drawn) [Example 4-41]
36 | 100 to 500 | CC(C)(NC(=O)Nc1cccc2c1CC(O)CC2)c1ccc(Cl)cc1 (stereo not drawn) [Example 4-44]
37 | < 100 | O=C(NCc1ccc(C(F)(F)F)c(NC2CCCC2)c1)Nc1cccc2c1CC(O)CC2 (stereo not drawn) [Example 4-51]
38 | < 100 | CC(NC(=O)Nc1cccc2c1CC(O)CC2)c1ccc(Br)cc1 (stereo not drawn) [Example 4-42]
39 | < 100 | O=C(NCc1cccc2ccccc12)Nc1cccc2c1CC(O)CC2 (stereo not drawn) [Example 4-46]
40 | 100 to 500 | N#CCc1ccc(NC(=O)Nc2cccc3c2CC(O)CC3)cc1 (stereo not drawn) [Example 4-47]
41 | < 100 | O=C(NCc1ccc(Cl)c(C(F)(F)F)c1)Nc1cccc2c1CC(O)CC2 (stereo not drawn) [Example 4-35]
42 | < 100 | CC(NC(=O)Nc1cccc2c1CC(O)CC2)c1cccc2ccccc12 (stereo not drawn) [Example 4-49]
43 | 500 to 1000 | O=C(Nc1cccc2c1CC(O)CC2)NC(c1ccccc1)c1ccccc1 (stereo not drawn) [Example 4-43]
44 | < 100 | CN(C)c1ccc(CNC(=O)Nc2cccc3c2CC(O)CC3)cc1 (stereo not drawn) [Example 4-34]
45 | < 100 | O=C(NCc1ccc(C(F)(F)F)c(F)c1)Nc1cccc2c1CC(O)CC2 (stereo not drawn) [Example 4-37]
46 | 100 to 500 | CC(NC(=O)Nc1cccc2c1CC(O)CC2)c1ccccc1 (stereo not drawn) [Example 4-48]
47 | < 100 | O=C(NCCc1ccc(Cl)cc1)Nc1cccc2c1C[C@@H](O)CC2 [Example 4-54]
48 | < 100 | O=C(NCCc1ccc(Cl)cc1)Nc1cccc2c1C[C@H](O)CC2 [Example 4-53]

Same assay, conditions: Table 3; 10 nM capsaicin, human VR1-CHOluc9aeq cells; read-out: activity class

Row | IC50 [nM] | SMILES
49 | 100 to 500 | COc1ccc(NC(=O)Nc2cccc3c2CC(O)CC3)cc1OC (stereo not drawn) [Example 5-18]
50 | < 100 | CCOc1ccc(NC(=O)Nc2cccc3c2CC(O)CC3)cc1 (stereo not drawn) [Example 5-14]
51 | < 100 | Cc1ccc(NC(=O)Nc2cccc3c2CC(O)CC3)cc1C (stereo not drawn) [Example 5-22]
52 | < 100 | COc1ccc(NC(=O)Nc2cccc3c2CC(O)CC3)cc1Cl (stereo not drawn) [Example 5-19]
53 | < 100 | CC(C)(C)c1ccc(NC(=O)Nc2cccc3c2CC(O)CC3)cc1 (stereo not drawn) [Example 5-9]
54 | 500 to 1000 | O=C(Nc1ccc(O)cc1)Nc1cccc2c1CC(O)CC2 (stereo not drawn) [Example 5-20]
55 | 100 to 500 | Cc1ccc(NC(=O)Nc2cccc3c2CC(O)CC3)cc1 (stereo not drawn) [Example 5-7]
56 | < 100 | Cc1cc(NC(=O)Nc2cccc3c2CC(O)CC3)ccc1F (stereo not drawn) [Example 5-24]
57 | 500 to 1000 | COc1ccc(NC(=O)Nc2cccc3c2CC(O)CC3)cc1O (stereo not drawn) [Example 5-15]
58 | < 100 | Cc1cc(C)cc(NC(=O)Nc2cccc3c2CC(O)CC3)c1 (stereo not drawn) [Example 5-21]
59 | < 100 | COc1cc(NC(=O)Nc2cccc3c2CC(O)CC3)cc(C(F)(F)F)c1 (stereo not drawn) [Example 5-12]
60 | 100 to 500 | CSc1ccc(NC(=O)Nc2cccc3c2CC(O)CC3)cc1 (stereo not drawn) [Example 5-16]
61 | < 100 | O=C(Nc1cccc(Br)c1)Nc1cccc2c1CC(O)CC2 (stereo not drawn) [Example 5-5]
62 | < 100 | COc1ccc(NC(=O)Nc2cccc3c2CC(O)CC3)cc1F (stereo not drawn) [Example 5-17]
63 | 500 to 1000 | O=C(Nc1ccccc1F)Nc1cccc2c1CC(O)CC2 (stereo not drawn) [Example 5-2]
